Among the data in US20260285855A1, “HETEROARYL DERIVATIVES AS DDRS INHIBITORS” (CHIESI FARMACEUTICI S.P.A., priority 2023, published 2026) are Ki values, retold here.

pKi: −log10 of the molar value.

In one test the target is T1, DDR1 (Homo sapiens, UniProt Q08345).
T1 construct: purchased Carna Biosciences
Nature of the test: LanthaScreen Europium Kinase Binding assay, DDR1. The settings on record: 5 nM DDR1, 20 nM Kinase Tracer 178, 1 h at rt; Ki from IC50 by Cheng-Prusoff; read-out: Ki DDR1. The procedure:
(§1) DDR1 and DDR2 binding assays were performed using Life Technologies LanthaScreen™ Europium Kinase Binding assay. […] IC50 values were determined in GraphPad Prism 7.0 software, using 4 parameter model: log (inhibitor) vs. response. IC50 values were converted in Ki using the Cheng-Prusoff equation (Ki-IC50/(1+ [Tracer]/Kd).
A general note: TR-FRET usually uses a lanthanide donor and a delayed reading to cut background.

The target of another test is T2, DDR2 (Homo sapiens, UniProt Q16832).
T2 construct: purchased Life Technologies
T2 sequence (Q16832 22-855): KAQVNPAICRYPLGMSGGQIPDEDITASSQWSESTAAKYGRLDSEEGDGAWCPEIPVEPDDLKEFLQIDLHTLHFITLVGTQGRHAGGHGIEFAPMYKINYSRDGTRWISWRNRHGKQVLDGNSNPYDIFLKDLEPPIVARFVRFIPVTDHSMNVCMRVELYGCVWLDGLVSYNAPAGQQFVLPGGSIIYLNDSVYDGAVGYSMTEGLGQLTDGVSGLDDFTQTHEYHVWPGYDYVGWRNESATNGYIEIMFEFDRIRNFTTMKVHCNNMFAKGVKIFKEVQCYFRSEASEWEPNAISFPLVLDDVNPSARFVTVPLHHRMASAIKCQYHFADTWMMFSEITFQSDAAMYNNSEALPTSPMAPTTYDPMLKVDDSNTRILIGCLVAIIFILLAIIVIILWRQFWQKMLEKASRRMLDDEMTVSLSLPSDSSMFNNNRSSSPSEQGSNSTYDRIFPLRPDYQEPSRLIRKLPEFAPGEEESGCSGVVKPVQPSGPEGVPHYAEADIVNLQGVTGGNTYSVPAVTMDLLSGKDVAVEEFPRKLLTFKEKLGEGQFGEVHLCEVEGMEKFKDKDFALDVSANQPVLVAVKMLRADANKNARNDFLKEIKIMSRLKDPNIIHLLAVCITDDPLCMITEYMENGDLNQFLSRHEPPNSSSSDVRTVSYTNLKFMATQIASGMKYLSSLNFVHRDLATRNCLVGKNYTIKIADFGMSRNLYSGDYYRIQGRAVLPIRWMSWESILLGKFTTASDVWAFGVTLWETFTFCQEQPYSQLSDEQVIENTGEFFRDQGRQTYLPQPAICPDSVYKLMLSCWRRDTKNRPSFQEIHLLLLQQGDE
Nature of the test: LanthaScreen Europium Kinase Binding assay, DDR2. The settings on record: 5 nM DDR2, 10 nM Kinase Tracer 178, 1 h at rt; Ki from IC50 by Cheng-Prusoff; read-out: Ki DDR2. The procedure:
as §1

T1 sequence (Q08345 19-913): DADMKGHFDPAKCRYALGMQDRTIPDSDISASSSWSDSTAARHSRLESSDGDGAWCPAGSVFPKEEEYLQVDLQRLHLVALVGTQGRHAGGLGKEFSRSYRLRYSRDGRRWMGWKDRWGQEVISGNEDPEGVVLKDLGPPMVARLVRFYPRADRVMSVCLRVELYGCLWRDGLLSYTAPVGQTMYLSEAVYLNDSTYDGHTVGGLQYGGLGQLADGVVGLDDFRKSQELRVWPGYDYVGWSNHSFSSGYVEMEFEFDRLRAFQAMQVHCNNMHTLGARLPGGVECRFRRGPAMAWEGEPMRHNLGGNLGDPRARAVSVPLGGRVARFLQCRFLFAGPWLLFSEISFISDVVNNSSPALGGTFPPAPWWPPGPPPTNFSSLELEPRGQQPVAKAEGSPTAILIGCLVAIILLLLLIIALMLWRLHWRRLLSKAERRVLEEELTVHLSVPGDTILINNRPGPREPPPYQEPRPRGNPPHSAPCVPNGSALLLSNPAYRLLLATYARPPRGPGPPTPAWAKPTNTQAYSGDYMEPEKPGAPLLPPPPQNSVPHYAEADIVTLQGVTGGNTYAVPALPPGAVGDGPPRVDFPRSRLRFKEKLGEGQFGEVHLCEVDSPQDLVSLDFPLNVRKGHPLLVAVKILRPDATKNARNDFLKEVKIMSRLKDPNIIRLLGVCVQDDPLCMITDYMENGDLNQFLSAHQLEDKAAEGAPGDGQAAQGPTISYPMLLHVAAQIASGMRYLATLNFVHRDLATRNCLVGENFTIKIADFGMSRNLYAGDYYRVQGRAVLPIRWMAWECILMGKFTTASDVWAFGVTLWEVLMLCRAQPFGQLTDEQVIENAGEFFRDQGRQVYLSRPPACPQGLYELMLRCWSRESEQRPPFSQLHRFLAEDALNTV

Usually pKi stands for the negative decadic logarithm of the Ki, by convention in mol/L. Regarding `O=C(Nc1cccc(C(F)(F)F)c1)NC1CC2(C1)CN(C(=O)c1cnc3sccn13)C2` [Example 96, 1-(2-(imidazo[2,1-b]thiazole-5-carbonyl)-2-azaspiro[3.3]heptan-6-yl)-3-(3-(trifluoromethyl)phenyl)urea], the pKi at DDR1 and on DDR2 was over 8.30 each time.

As for `Cn1ccn2ncc(C(=O)N3CC4(CC(NC(=O)Nc5cc(OC(F)(F)F)ccn5)C4)C3)c12` [Example 73, 1-(2-(1-methyl-1H-imidazo[1,2-b]pyrazole-7-carbonyl)-2-azaspiro[3.3]heptan-6-yl)-3-(4-(trifluoromethoxy)pyridin-2-yl)urea], the pKi on DDR1 was over 8.30; on DDR2, 7.60 to 8.30.

Take `Cc1cc(NC(=O)N(C)C2CC3(C2)CN(C(=O)c2cnn4ccn(C)c24)C3)cc(C(F)(F)F)c1` [Example 223, 1-methyl-1-(2-(1-methyl-1H-imidazo[1,2-b]pyrazole-7-carbonyl)-2-azaspiro[3.3]heptan-6-yl)-3-(3-methyl-5-(trifluoromethyl)phenyl)urea]: the figures for the pKi on DDR1 and at DDR2 were over 8.30 and 7.60 to 8.30, respectively.

Consider `Cc1cc(-c2ccc3c(C(=O)N4CC5(CC(N(C)C(=O)Nc6cncc(C(F)(F)F)c6)C5)C4)cnn3c2)on1` [Example 237, 1-methyl-1-(2-(6-(3-methylisoxazol-5-yl)pyrazolo[1,5-a]pyridine-3-carbonyl)-2-azaspiro[3.3]heptan-6-yl)-3-(5-(trifluoromethyl)pyridin-3-yl)urea], for which the pKi was over 8.30 on DDR1 and 7.60 to 8.30 on DDR2.

`CN(C)Cc1ccc(NC(=O)NC2CC3(C2)CN(C(=O)c2ncnc4ccsc24)C3)cc1C(F)(F)F` [Example 112, 1-(4-((dimethylamino)methyl)-3-(trifluoromethyl)phenyl)-3-(2-(thieno[3,2-d]pyrimidine-4-carbonyl)-2-azaspiro[3.3]heptan-6-yl)urea]: the pKi at DDR1 was over 8.30; on DDR2, 7.60 to 8.30.

In the case of `[2H]C([2H])([2H])N(C(=O)Nc1cccc(C(F)(F)F)c1)C1CC2(C1)CN(C(=O)c1cnn3ccn(C)c13)C2` [Example 158, 1-(methyl-d3)-1-(2-(1-methyl-1H-imidazo[1,2-b]pyrazole-7-carbonyl)-2-azaspiro[3.3]heptan-6-yl)-3-(3-(trifluoromethyl)phenyl)urea], the pKi at DDR1 is over 8.30; at DDR2, 7.60 to 8.30.

As for `CSCn1ccn2ncc(C(=O)N3CC4(CC(NC(=O)Nc5cccc(C(F)(F)F)c5)C4)C3)c12` [Example 196, 1-(2-(1-((methylthio)methyl)-1H-imidazo[1,2-b]pyrazole-7-carbonyl)-2-azaspiro[3.3]heptan-6-yl)-3-(3-(trifluoromethyl)phenyl)urea], the pKi on DDR1 is over 8.30; at DDR2 it was 7.60 to 8.30.

As for `CC(C)(c1cc(NC(=O)OC2CC3(C2)CN(C(=O)c2cnn4ccsc24)C3)no1)C(F)(F)F` [Example 293, 2-(pyrazolo[5,1-b]thiazole-7-carbonyl)-2-azaspiro[3.3]heptan-6-yl(5-(1,1,1-trifluoro-2-methylpropan-2-yl)isoxazol-3-yl)carbamate], the pKi at DDR1 and on DDR2 was over 8.30 throughout.

For the compound `CC(C)(C)c1cc(NC(=O)NC2CC3(C2)CN(C(=O)c2cnn4ccsc24)C3)no1` [Example 20, 1-(5-(tert-butyl)isoxazol-3-yl)-3-(2-(pyrazolo[5,1-b]thiazole-7-carbonyl)-2-azaspiro[3.3]heptan-6-yl)urea], the pKi at DDR1 is over 8.30; on DDR2, 7.60 to 8.30.

As to `CN(C(=O)Nc1cc(OC(F)(F)F)ccn1)C1CC2(C1)CN(C(=O)c1cnn3ccccc13)C2` [Example 239, 1-methyl-1-(2-(pyrazolo[1,5-a]pyridine-3-carbonyl)-2-azaspiro[3.3]heptan-6-yl)-3-(4-(trifluoromethoxy)pyridin-2-yl)urea], the pKi at DDR1 was over 8.30; at DDR2, 7.60 to 8.30.

With `CN(C(=O)Nc1cc(C(C)(C)C(F)(F)F)on1)C1CC2(C1)CN(C(=O)c1cnn3ccsc13)C2` [Example 235, 1-methyl-1-(2-(pyrazolo[5,1-b]thiazole-7-carbonyl)-2-azaspiro[3.3]heptan-6-yl)-3-(5-(1,1,1-trifluoro-2-methylpropan-2-yl)isoxazol-3-yl)urea], the pKi on DDR1 is over 8.30; on DDR2 it was 7.60 to 8.30.

In the case of `Cc1ccc(OC(F)(F)F)cc1NC(=O)N(C)C1CC2(C1)CN(C(=O)c1cnn3ccsc13)C2` [Example 151, 1-methyl-3-(2-methyl-5-(trifluoromethoxy)phenyl)-1-(2-(pyrazolo[5,1-b]thiazole-7-carbonyl)-2-azaspiro[3.3]heptan-6-yl)urea], the pKi was over 8.30 on DDR1 and 7.60 to 8.30 at DDR2.

`CN(C(=O)Nc1cncc(C(F)(F)F)c1)C1CC2(C1)CN(C(=O)c1cnn3ccncc13)C2` [Example 175, 1-methyl-1-(2-(pyrazolo[1,5-a]pyrazine-3-carbonyl)-2-azaspiro[3.3]heptan-6-yl)-3-(5-(trifluoromethyl)pyridin-3-yl)urea]: the pKi is 7.60 to 8.30 on DDR1 and 7.00 to 7.60 on DDR2.

As to `COc1ccc(OC(F)(F)F)cc1NC(=O)N(C)C1CC2(C1)CN(C(=O)c1ncnc3ccsc13)C2` [Example 77, 3-(2-methoxy-5-(trifluoromethoxy)phenyl)-1-methyl-1-(2-(thieno[3,2-d]pyrimidine-4-carbonyl)-2-azaspiro[3.3]heptan-6-yl)urea], the pKi is over 8.30 at DDR1 and 7.60 to 8.30 at DDR2.

For `CN(C(=O)Nc1cncc(C(F)(F)C(F)(F)F)c1)C1CC2(C1)CN(C(=O)c1cnn3ccn(C)c13)C2` [Example 266, 1-methyl-1-(2-(1-methyl-1H-imidazo[1,2-b]pyrazole-7-carbonyl)-2-azaspiro[3.3]heptan-6-yl)-3-(5-(perfluoroethyl)pyridin-3-yl)urea], the values for the pKi on DDR1 and at DDR2 were over 8.30 and 7.60 to 8.30, respectively.

Turning to `O=C(Nc1ccc(C(F)(F)F)cn1)NC1CC2(C1)CN(c1cnc3[nH]ncc3c1)C2` [Example 163, 1-(2-(1H-pyrazolo[3,4-b]pyridin-5-yl)-2-azaspiro[3.3]heptan-6-yl)-3-(5-(trifluoromethyl)pyridin-2-yl)urea], the pKi on DDR1 and at DDR2 was 7.60 to 8.30 in each case.

With `Cc1ccc(OC(F)(F)F)cc1NC(=O)N(C)C1CC2(C1)CN(C(=O)c1ncnc3[nH]ccc13)C2` [Example 201, 1-(2-(7H-pyrrolo[2,3-d]pyrimidine-4-carbonyl)-2-azaspiro[3.3]heptan-6-yl)-1-methyl-3-(2-methyl-5-(trifluoromethoxy)phenyl)urea], the results for the pKi on DDR1 and on DDR2 were over 8.30 and 7.60 to 8.30, respectively.

Regarding `COc1cc(C(F)(F)F)cc(NC(=O)N(C)C2CC3(C2)CN(C(=O)c2cnn4ccn(C)c24)C3)n1` [Example 256, 3-(6-methoxy-4-(trifluoromethyl)pyridin-2-yl)-1-methyl-1-(2-(1-methyl-1H-imidazo[1,2-b]pyrazole-7-carbonyl)-2-azaspiro[3.3]heptan-6-yl)urea], the pKi is over 8.30 on DDR1 and 7.60 to 8.30 on DDR2.

Turning to `O=C(Nc1cccc(C(F)(F)F)c1)NC1CC2(C1)CN(C(=O)c1ncnc3[nH]ncc13)C2` [Example 122, 1-(2-(1H-pyrazolo[3,4-d]pyrimidine-4-carbonyl)-2-azaspiro[3.3]heptan-6-yl)-3-(3-(trifluoromethyl)phenyl)urea], the pKi at DDR1 and on DDR2 was over 8.30 each time.
